How the values were obtained:
[1] = Stability of bis azainositol heavy metal complexes under heat sterilization (121° C., 45 min, pH 7.4; HPLC and ICP-OES); conditions: aqueous buffered solution pH 7.4, 5 mmol/L, 121° C. for 45 min in steam autoclave; absolute stability = HPLC peak area ratio x metal concentration ratio after/before
Experimental: The stability of bis azainositol heavy metal complexes was determined in aqueous, buffered solution at pH 7.4. The solution containing 5 mmol/L of the compound in a tightly sealed vessel was heated to 121° C. for 45 min in a steam autoclave. The metal concentration of the solution was determined by ICP-OES before and after heat treatment. The integrity of the compound was determined by HPLC analysis before and after heat treatment. Absolute stability was calculated as the ratio of the peak area of the compound after and before the heat treatment multiplied with the ratio of the metal concentration of the solution after and before heat treatment.
Column: Reversed phase C18. […] Solvent B: methanol, HPLC grade Gradient: gradients starting from 100% A and 0% B were used. Flow: 1 mL/min Detector D1: element specific detection by ICP-OES running at the most sensitive emission wavelength of the respective complexed metal. Detector D2: element specific detection by ICP-MS running at the most abundant isotope of the respective complexed metal.

Han-Wistar rat = experiment: Preclinical X-ray imaging: contrast enhanced CT of an anaesthetized rat; assay type: in vivo; conditions: i.v. tail vein, 200 mg Lu per kg body weight, 149 mg Lu/mL, 120 kV
Experimental: The study was performed on a clinical CT unit (Sensation 64, Siemens Medical Solutions, Erlangen, Germany) with an anaesthetized rat. The compound described in example 2 was used as X-ray diagnostic agents in order to perform contrast enhanced CT imaging.
The study was performed on a healthy Han-Wistar rat. Initial anaesthesia was induced by inhalation of 4% Isoflurane (Baxter Deutschland GmbH, Unterschleiβheim, Germany) and maintained by 1.5% Isoflurane. The X-ray diagnostic agent (Example 2) at a concentration of 149 mg Lu/mL was administered intravenously via the tail vein by the help of a dedicated injection pump (flow rate=0.6 mL/s). A dosage of 200 mg Lu per kg body weight was used. In order to simulate a clinical condition the rat was placed within a tissue equivalent phantom (QRM, Möhrendorf, Germany) that mimics the human abdomen in respect of X-ray absorption.
An X-ray projection image (topogram) was acquired to adjust the measurement range to the thoracal region of the animal. The subsequent contrast enhanced measurement was done with following CT parameter settings: X-ray tube voltage=120 kV, mAs-product=160 mAs, tube rotational time=0.5 s, slice thickness=2.4 mm, measurement time=20 s. […]
The signal-time course in the left heart chamber was quantified by a region of interest analysis. […]

mice = experiment: Tolerability in mice (behaviour and survival after 7 d); assay type: in vivo; conditions: i.v. tail vein
Experimental: An aqueous solution of Na3[Lu3(H−3tacita)2](in 10 mM trometamol buffer, pH 7.4, 148 mg Lu/mL) was injected in the tail vein of 1-3 mice for each dose group (22-25 g) at increasing doses ranging from 1000 to 3000 mg Lu/kg. The behaviour of the animals and the survival after 7 d was recorded.

[2] = Pharmacokinetics in rats (Hafnium blood concentration by ICP-MS, 3-compartment model); assay type: in vivo; conditions: i.v. 150 mg Hf/kg
Experimental: An aqueous solution of [Hf3(H−3tacitp)2](in 10 mM trometamol buffer, pH 7.4, 60 mg Hf/mL) was injected in the tail vein of 3 rats (ca. 250 g) at a dose of 150 mg Hf/kg. Blood samples were collected via a catheter from the arteria carotis at the following times: 1, 2, 5, 10, 15, 30, 60, 90, 120, 240, 360 and 1440 min after injection.
The Hafnium concentration in all blood samples was determined after digestion in oxidizing solution (nitric acid and hydrogen peroxide) at elevated pressure and temperature. The measurement of Hafnium was performed by ICP-MS.
The pharmacokinetic parameters were obtained for each animal by fitting the blood concentrations to a 3-compartment model, using the software WinNonlin.

[3] = Excretion in rats (Hafnium in urine, faeces, organs and carcass by ICP-MS); assay type: in vivo; conditions: i.v. 150 mg Hf/kg
Experimental: An aqueous solution of [Hf3(H−3tacitp)2](in 10 mM trometamol buffer, pH 7.4, 60 mg Hf/mL) was injected in the tail vein of 3 rats (ca. […]) at a dose of 150 mg Hf/kg. Urine samples were collected at the following time intervals: 0-0.5, 0.5-1, 1-3, 3-6, 6-24 h and then daily until day 7. Faeces was collected daily until day 7. On day 7 the animals were sacrificed and the following organs were excised: liver, kidneys, spleen, heart, lung, brain, lymph nodes, muscle, gut, duodenum, skin, bone marrow, bone. The remaining body was freeze dried and ground to obtain a fine powder.
The Hafnium concentration in all specimen was determined after digestion in oxidizing solution (nitric acid and hydrogen peroxide) at elevated pressure and temperature. The measurement of Hafnium was performed by ICP-MS.

Substance “Bis{μ3-[(all-cis)-2-{[(carboxy-1κO)methyl]amino-1κN}-4-{[(carboxy-2κO)methyl]amino-2κN}-6-{[(carboxy-3κO)methyl]amino-3κN}cyclohexane-1,3,5-triolate-1κ^2O^1,O^3:2κ^2O^3,O^5:3κ^2O^1,O^5]}trihafnium(IV) [Example 1]” has a Stability [1] of 102%.
With “Trisodium bis{μ3-[(all-cis)-2-{[(carboxy-1κO)methyl]amino-1κN}-4-{[(carboxy-2κO)methyl]amino-2κN}-6-{[(carboxy-3κO)methyl]amino-3κN}cyclohexane-1,3,5-triolate-1κ^2O^1,O^3:2κ^2O^3,O^5:3κ^2O^1,O^5]}trilutetate(III) [Example 2]” the “CT signal change in blood vessels and heart chambers during passage of the diagnostic agent” value (Han-Wistar rat) was “strong signal increase”, the “survival after 7 d” value (mice; 1000 mg Lu/kg) was “all animals survived” and the “survival after 7 d” value (mice; 2000 mg Lu/kg) was “all animals survived”. For the same substance, the “survival after 7 d” value (mice; 2500 mg Lu/kg) was “all animals survived”, the “survival after 7 d” value (mice; 3000 mg Lu/kg) was 2 of 3 animals died and the Stability [1] was 100%.
With “Trisodium bis{μ3-[(all-cis)-2-{[(carboxy-1κO)ethyl](methyl)-amino-1κN}-4-{[(carboxy-2κO)ethyl](methyl)amino-2κN}-6-{[(carboxy-3κO)ethyl]-(methyl)amino-3κN}cyclohexane-1,3,5-triolate-1κ^2O^1,O^3:2κ^2O^3,O^5:3κ^2O^1,O^5]}trilutetate(III) [Example 19]” the Stability [1] was 90%.
In the case of “Bis{μ3-[(all-cis)-2-{[(carboxy-1κO)ethyl]amino-1κN}-4-{[(carboxy-2κO)ethyl]amino-2κN}-6-{[(carboxy-3κO)ethyl]amino-3κN}cyclohexane-1,3,5-triolate-1κ^2O^1,O^3:2κ^2O^3,O^5:3κ^2O^1,O^5]}trihafnium(IV) [Example 13]”, the total plasma clearance [2] is reported as 10 ± 0.6 mL/min/kg, the blood half live ([2]; elimination phase) is reported as 22.6 ± 3.1 min and the volume of distribution ([2]; elimination phase) is reported as 0.31±0.01 I/kg. The “injected Hafnium excreted via the urine” value ([3]; after 1 d, cumulative) was 96%, the “Hafnium content of organs other than kidney” value ([3]; after 7 d) was ≤ 0.01 % of the injected dose/g organ (wet weight) and the “injected Hafnium found in all organs and the carcass together” value ([3]; after 7 d) was 0.33%. For the same substance, the “injected Hafnium excreted via the urine” value ([3]; after 7 d, cumulative) was 97% and the “injected Hafnium found in faeces” value ([3]; after 7 d, cumulative) was “About 1.3%”.
Work on “Trisodium bis{μ3-(all-cis)-2-{[(carboxy-1κO)ethyl](methyl)-amino-1κN}-4-{[(carboxy-2κO)ethyl](methyl)amino-2κN}-6-{[(carboxy-3κO)ethyl]-(methyl)amino-3κN}cyclohexane-1,3,5-triolate-1κ^2O^1,O^3:2κ^2O^3,O^5:3κ^2O^1,O^5]}triytterbate(II) [Example 23]” yielded a Stability [1] of 96%.

Source: patent US20150132229A1, “BIS AZAINOSITOL HEAVY METAL COMPLEXES FOR X-RAY IMAGING” (BAYER PHARMA AKTIENGESELLSCHAFT, priority 2012, published 2015)
